Consider 15 molecules from PubChem BioAssay (NCI).

Among the test systems are HT29 colon; UACC-62 melanoma; K-562 leukemia; 786-0 renal; HOP-62 NSCLC; HOP-92 NSCLC; SNB-75 CNS; UO-31 renal; SW-620 colon; U251 CNS; SK-OV-3 ovarian; OVCAR-8 ovarian; HCT-116 colon; EKVX NSCLC; SK-MEL-2 melanoma.
Common to all, as to experiment: inhibition of tumour cell growth, NCI panel, 48 h

The structures appear in SMILES notation.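 Test compounds were applied to cells in 96-well plates for 48 hours at 5 doses. Definition used: TGI = concentration required for complete inhibition of growth.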 Bounds are passed on as bounds.

Regarding `COc1ccc(/C(=N/NC(N)=O)C(c2ccc(OC)cc2)C2C(=O)Oc3ccccc32)cc1` (stereo unspecified), the TGI in the assay on HT29 colon, in the assay with UACC-62 melanoma, in the assay on K-562 leukemia, in the assay with 786-0 renal, in the assay with HOP-62 NSCLC and with HOP-92 NSCLC was more than 100 µM throughout. The TGI with SNB-75 CNS, in the assay on UO-31 renal, with SW-620 colon, in the assay with U251 CNS, in the assay on SK-OV-3 ovarian and with OVCAR-8 ovarian was more than 100 µM in each case. In the assay with HCT-116 colon, this molecule showed a TGI of more than 100 µM.

As for `CC(=O)NNc1nc(C)c(C(/C=C/c2ccc(Cl)cc2)=N/NC(=O)C[N+](C)(C)C)s1`, the TGI with HT29 colon, in the assay with UACC-62 melanoma, with EKVX NSCLC, in the assay on K-562 leukemia, in the assay with SK-MEL-2 melanoma and in the assay on 786-0 renal was more than 100 µM in each case. The TGI with HOP-92 NSCLC, with SNB-75 CNS, with UO-31 renal, with SW-620 colon, with SK-OV-3 ovarian and with HCT-116 colon was more than 100 µM in each case.

Turning to `O=C1CC(=O)N(CCc2ccccc2)S(=O)(=O)N1CCc1ccccc1`, the TGI in the assay with HT29 colon was 47.5 µM; in the assay on UACC-62 melanoma, 77.7 µM; in the assay with K-562 leukemia, 58.1 µM; with SK-MEL-2 melanoma, 48.3 µM; in the assay with 786-0 renal it was 30.8 µM; in the assay on HOP-62 NSCLC it was more than 100 µM. The TGI in the assay on HOP-92 NSCLC was 32.3 µM; in the assay with SNB-75 CNS, 84.7 µM; in the assay on UO-31 renal, 40.5 µM; with SW-620 colon, more than 100 µM; in the assay on U251 CNS, 30.5 µM; in the assay on SK-OV-3 ovarian it was 61 µM. In the assay on HCT-116 colon, this molecule gave a TGI of 74.5 µM.

Consider `CN(C)c1ccc(/C=N\N2C(=O)c3ccccc3C2=O)cc1`, for which the TGI in the assay on HT29 colon, in the assay on UACC-62 melanoma, in the assay on EKVX NSCLC, in the assay with K-562 leukemia, with SK-MEL-2 melanoma and in the assay with 786-0 renal was more than 100 µM throughout. The TGI in the assay with HOP-62 NSCLC, with HOP-92 NSCLC, with SNB-75 CNS, in the assay with UO-31 renal, in the assay with SW-620 colon and with OVCAR-8 ovarian was more than 100 µM throughout. In the assay on HCT-116 colon, the TGI was more than 100 µM.

As to `O=c1cc(-c2ccc(Cl)cc2)oc2cc(OCCCOc3ccc4c(=O)cc(-c5ccc(Cl)cc5)oc4c3)ccc12`, the TGI in the assay with HT29 colon, in the assay with UACC-62 melanoma, in the assay on EKVX NSCLC, in the assay with K-562 leukemia, in the assay on SK-MEL-2 melanoma and in the assay with 786-0 renal was more than 100 µM throughout. The TGI with HOP-62 NSCLC, in the assay on HOP-92 NSCLC, with SNB-75 CNS, with SW-620 colon, in the assay with U251 CNS and in the assay on SK-OV-3 ovarian was more than 100 µM each time. For the same molecule, the TGI in the assay with OVCAR-8 ovarian and with HCT-116 colon was more than 100 µM in each case.

Take `Cc1ccc(O)c(C(=O)CCCC(=O)c2cc(C)ccc2O)c1`: the TGI in the assay with HT29 colon, in the assay with UACC-62 melanoma, with EKVX NSCLC, in the assay on K-562 leukemia, with SK-MEL-2 melanoma and in the assay with 786-0 renal was more than 100 µM throughout. Besides, the TGI in the assay on HOP-62 NSCLC, in the assay on HOP-92 NSCLC, in the assay on SNB-75 CNS, in the assay with UO-31 renal, with SW-620 colon and in the assay on U251 CNS was more than 100 µM in each case. Moreover, the TGI in the assay with SK-OV-3 ovarian and in the assay with OVCAR-8 ovarian was more than 100 µM each time.

With `Cn1ncnc1CCc1ccccc1`, the TGI in the assay on HT29 colon, in the assay with UACC-62 melanoma, with K-562 leukemia, with SK-MEL-2 melanoma, in the assay with 786-0 renal and in the assay on HOP-62 NSCLC was more than 100 µM in each case. The TGI in the assay with HOP-92 NSCLC, in the assay on SNB-75 CNS, in the assay with UO-31 renal, with SW-620 colon, in the assay with U251 CNS and in the assay on SK-OV-3 ovarian was more than 100 µM in each case. Further, the TGI in the assay on OVCAR-8 ovarian and in the assay with HCT-116 colon was more than 100 µM in each case.

For the molecule `N#CC1(C=O)c2ccccc2C=CN1C(=O)c1ccccc1` (stereo unspecified), the TGI with HT29 colon was more than 100 µM; in the assay with UACC-62 melanoma it was more than 100 µM; with EKVX NSCLC, more than 100 µM; in the assay with K-562 leukemia, 91.6 µM; in the assay with SK-MEL-2 melanoma, more than 100 µM; in the assay with 786-0 renal, more than 100 µM. Besides, the TGI in the assay with HOP-92 NSCLC is 65.9 µM; in the assay on SNB-75 CNS it was 66.9 µM; in the assay with UO-31 renal it was more than 100 µM; in the assay on SW-620 colon, 19.3 µM; with U251 CNS it was more than 100 µM; in the assay with OVCAR-8 ovarian, more than 100 µM. In addition, in the assay on HCT-116 colon, the TGI is more than 100 µM.

As to `COC(=O)[C@@]12OC[C@]34C([C@@H](O)C1O)[C@@]1(C)CC(=O)C(OC(=O)/C=C(/c5ccccc5)C(F)(F)F)=C(C)C1C[C@H]3OC(=O)[C@H](O)[C@H]42` (stereo partly specified), the TGI with HT29 colon is 46.3 µM; in the assay with UACC-62 melanoma, 11.7 µM; with EKVX NSCLC, more than 50 µM; in the assay on K-562 leukemia it was more than 50 µM; in the assay with SK-MEL-2 melanoma, 27.4 µM; in the assay with 786-0 renal it was more than 50 µM. Besides, the TGI in the assay on HOP-62 NSCLC is 46.1 µM; in the assay on HOP-92 NSCLC it was 43.7 µM; with SNB-75 CNS, 31.3 µM; in the assay on UO-31 renal, more than 50 µM; in the assay on U251 CNS it was more than 50 µM; in the assay on SK-OV-3 ovarian, more than 50 µM. Besides, the TGI with OVCAR-8 ovarian and in the assay with HCT-116 colon was more than 50 µM in each case.

Regarding `COC(=O)c1ccc(Cc2ccc(C(=O)OC)o2)o1`, the TGI in the assay with HT29 colon, with UACC-62 melanoma, with EKVX NSCLC, in the assay on K-562 leukemia, with SK-MEL-2 melanoma and in the assay with 786-0 renal was more than 378 µM throughout. The TGI with HOP-62 NSCLC, in the assay on HOP-92 NSCLC, in the assay with SW-620 colon, in the assay with U251 CNS, with SK-OV-3 ovarian and in the assay with OVCAR-8 ovarian was more than 378 µM throughout. The molecule also came in with a TGI with HCT-116 colon of more than 378 µM.

For the molecule `COc1cc(O)c2c(=O)cc(C3(O)C=CC(=O)C=C3)oc2c1`, the TGI was 0.786 µM in the assay with UACC-62 melanoma; 5.79 µM with EKVX NSCLC; 11.1 µM with K-562 leukemia; 2.66 µM in the assay on SK-MEL-2 melanoma; 0.876 µM in the assay with 786-0 renal; 0.486 µM in the assay on HOP-62 NSCLC. For the same molecule, the TGI in the assay with HOP-92 NSCLC was 0.493 µM; in the assay on SNB-75 CNS, 3.06 µM; with UO-31 renal it was 0.993 µM; with SW-620 colon, 0.0663 µM; in the assay on U251 CNS, 0.0808 µM; in the assay with SK-OV-3 ovarian, 13.8 µM. The same molecule displayed a TGI in the assay on OVCAR-8 ovarian of 0.586 µM.

For the molecule `COc1ccc(CNc2nc3c(NC(C)=O)cc(C(F)(F)F)cc3nc2-c2ccccc2)cc1OC`, the TGI in the assay on HT29 colon, in the assay on UACC-62 melanoma, in the assay with EKVX NSCLC, with K-562 leukemia, with SK-MEL-2 melanoma and in the assay on 786-0 renal was more than 100 µM each time. The TGI was more than 100 µM in the assay with HOP-62 NSCLC; 4.48 µM with SNB-75 CNS; more than 100 µM in the assay with UO-31 renal; more than 100 µM in the assay on SW-620 colon; more than 100 µM in the assay with U251 CNS; more than 100 µM in the assay on SK-OV-3 ovarian. The TGI with OVCAR-8 ovarian and with HCT-116 colon was more than 100 µM throughout.

On to `COc1cc2c(cc1OC)C(=O)C(C1=C(SC(=N)N)C(=O)c3cc(OC)c(OC)cc31)C2` (stereo unspecified), for which the TGI in the assay with HT29 colon, in the assay on UACC-62 melanoma, in the assay on EKVX NSCLC, in the assay with K-562 leukemia, in the assay with SK-MEL-2 melanoma and in the assay on 786-0 renal was more than 100 µM each time. Further, the TGI in the assay with HOP-62 NSCLC, in the assay on SNB-75 CNS, in the assay with UO-31 renal, in the assay with SW-620 colon, with U251 CNS and with SK-OV-3 ovarian was more than 100 µM throughout. For the same molecule, the TGI in the assay on OVCAR-8 ovarian and with HCT-116 colon was more than 100 µM in each case.

On to `COc1cc(/C=C2/C(=O)N(C(=O)c3ccc(Cl)cc3)N=C2C)cc(OC)c1OC`, for which the TGI with HT29 colon, in the assay with UACC-62 melanoma, with EKVX NSCLC, with K-562 leukemia, in the assay with SK-MEL-2 melanoma and in the assay with 786-0 renal was more than 100 µM throughout. The TGI in the assay on HOP-92 NSCLC, in the assay on UO-31 renal, with SW-620 colon, in the assay with U251 CNS, in the assay on SK-OV-3 ovarian and in the assay with OVCAR-8 ovarian was more than 100 µM in each case. The molecule also registered a TGI in the assay with HCT-116 colon of more than 100 µM.

Take `COCCOCC(=O)N(CCn1ccc(NC(c2ccccc2)(c2ccccc2)c2ccccc2)nc1=O)CCn1cnc2nc(N)[nH]c(=O)c21`: the TGI with HT29 colon, with UACC-62 melanoma, with EKVX NSCLC, with K-562 leukemia, in the assay on SK-MEL-2 melanoma and with 786-0 renal was more than 100 µM throughout. Besides, the TGI in the assay with HOP-62 NSCLC, in the assay with HOP-92 NSCLC, in the assay with SNB-75 CNS, with UO-31 renal, in the assay on SW-620 colon and with U251 CNS was more than 100 µM in each case. In addition, the TGI in the assay with OVCAR-8 ovarian and with HCT-116 colon was more than 100 µM throughout.
